# Data taken from patent US9850203B2, “Autotaxin inhibitor compounds” (PharmAkea, Inc., priority 2013, dated 2017).
# Target: human autotaxin (ATX) (Homo sapiens (Human), UniProt Q13822)
# Assay: Human Autotaxin Assay
# Format: biochemical
# Conditions: concentrated conditioned media from Hep3B cells; LPC substrate, choline release
# Method: ATX activity is assayed in concentrated conditioned media from Hep3B human hepatocellular carcinoma cells by measuring the amount of choline released from the substrate, lysophosphatidylcholine (LPC) as it is cleaved to LPA. Conditioned media is collected from confluent Hep3B cells and concentrated 20-fold using Centriprep-30 filter devices (Millipore). To assay for autotaxin inhibition, 10-20 μL of the concentrated conditioned media is incubated with 2.5 μL of a test compound in DMSO and 72.5-82.5 μL lyso-PLD buffer (100 mM Tris pH 9, 500 mM NaCl, 5 mM MgCl2, 5 mM CaCl2, 0.05% Triton X-100 in the presence or absence of 0.2% fatty-acid-free human serum albumin) for 15 min at 37° C. After the 15 min incubation, 5 uL of 2 mM LPC (14:0; Avanti Polar Lipids Cat#855575C) diluted in lyso-PLD buffer is added for a final concentration of 100 uM and the incubation continues for 1.5-3 hours at 37° C.
row,IC50 [nM],Structure (SMILES)
1,≤ 500,"Cc1c(Sc2cccc(C(=O)O)c2F)c2ccc(Cl)c(F)c2n1CC(=O)N1CC2(CCCC2)c2ccccc21 [Compound 3-221, 3-((6-Chloro-7-fluoro-2-methyl-1-(2-oxo-2-(spiro[cyclopentane-1,3′-indolin]-1′-yl)ethyl)-1H-indol-3-yl)thio)-2-fluorobenzoic acid]"
2,≤ 500,"Cc1c(Sc2cccc(C(=O)O)c2F)c2ccc(Cl)c(F)c2n1CC(=O)N1C[C@H](O)[C@@H](N2CCN(C)CC2)C1 [Compound 2-70, 3-((6-Chloro-7-fluoro-1-(2-((3S,4S)-3-hydroxy-4-(4-methylpiperazin-1-yl)pyrrolidin-1-yl)-2-oxoethyl)-2-methyl-1H-indol-3-yl)thio)-2-fluorobenzoic acid]"
3,≤ 500,"Cc1c(Sc2cccc(C(=O)O)n2)c2ccc(Cl)c(F)c2n1CC(=O)N1CC2(CCC2)c2c(F)cccc21 [Compound 3-104, 6-((6-Chloro-7-fluoro-1-(2-(4′-fluorospiro[cyclobutane-1,3′-indolin]-1′-yl)-2-oxoethyl)-2-methyl-1H-indol-3-yl)thio)picolinic acid]"
4,≤ 500,"O=C(O)c1cccc(Sc2c(C3CC3)n(CCN3CCc4ccccc43)c3c(F)c(Cl)ccc23)c1F [Compound 5-4, Sodium 3-((6-chloro-2-cyclopropyl-7-fluoro-1-(2-(indolin-1-yl)ethyl)-1H-indol-3-yl)thio)-2-fluorobenzoate]"
5,≤ 500,"Cc1c(Sc2cccc(C(=O)O)c2F)c2ccc(Cl)c(F)c2n1CC(=O)N1C[C@@H](O)[C@H](F)C1 [Compound 2-66, 3-((6-Chloro-7-fluoro-1-(2-((3R,4R)-3-fluoro-4-hydroxypyrrolidin-1-yl)-2-oxoethyl)-2-methyl-1H-indol-3-yl)thio)-2-fluorobenzoic acid]"
6,≤ 500,"Cc1c(Sc2cccc(C(=O)O)c2F)c2ccc(Cl)c(F)c2n1CCN1CC2(CC2)c2ccccc21 [Compound 2-74, Sodium 3-((6-chloro-7-fluoro-2-methyl-1-(2-(spiro[cyclopropane-1,3′-indolin]-1′-yl)ethyl)-1H-indol-3-yl)thio)-2-fluorobenzoate]"

# Second part, the compound before the results:
row,Structure (SMILES),IC50 [nM]
1,"CCCC1CCN(C(=O)Cn2c(C)c(Sc3cccc(C(=O)O)c3)c3ccc(Cl)c(F)c32)C1 (stereo not shown) [Compound 1-77, 3-((6-Chloro-7-fluoro-2-methyl-1-(2-oxo-2-(3-propylpyrrolidin-1-yl)ethyl)-1H-indol-3-yl)thio)benzoic acid]",≤ 500
2,"Cc1c(Sc2cccc(C(=O)O)c2)c2ccc(Cl)c(F)c2n1CC(=O)N1CCCC(Cc2ccc(F)cc2)C1 (stereo not shown) [Compound 1-15, 3-((6-Chloro-7-fluoro-1-(2-(3-(4-fluorobenzyl)piperidin-1-yl)-2-oxoethyl)-2-methyl-1H-indol-3-yl)thio)benzoic acid]",500 to 3000
3,"Cc1c(Sc2cccc(C(=O)O)c2)c2ccc(Cl)c(F)c2n1CC(=O)N1CC2(CCCC2)c2ccccc21 [Compound 1-39, 3-((6-Chloro-7-fluoro-2-methyl-1-(2-oxo-2-(spiro[cyclopentane-1,3′-indolin]-1′-yl)ethyl)-1H-indol-3-yl)thio)benzoic acid]",≤ 500
4,"Cc1c(Sc2cccc(C(=O)O)c2)c2ccc(Cl)c(F)c2n1CC(=O)NCC(F)(F)F [Compound 1-5, 3-((6-Chloro-7-fluoro-2-methyl-1-(2-oxo-2-((2,2,2-trifluoroethyl)amino)ethyl)-1H-indol-3-yl)thio)benzoic acid]",≤ 500
5,"Cc1c(Sc2cccc(C(=O)O)c2)c2ccc(Cl)c(F)c2n1CC(=O)N1CCC(c2cnn(C)c2)C1 (stereo not shown) [Compound 1-96, 3-((6-Chloro-7-fluoro-2-methyl-1-(2-(3-(1-methyl-1H-pyrazol-4-yl)pyrrolidin-1-yl)-2-oxoethyl)-1H-indol-3-yl)thio)benzoic acid]",≤ 500
6,"Cc1c(Sc2cccc(C(=O)O)c2)c2ccc(Cl)c(F)c2n1CC(=O)N1CCC2(CC1)CC(=O)C2 [Compound 1-18, 3-((6-Chloro-7-fluoro-2-methyl-1-(2-oxo-2-(2-oxo-7-azaspiro[3.5]nonan-7-yl)ethyl)-1H-indol-3-yl)thio)benzoic acid]",≤ 500
7,"Cc1c(Sc2cccc(C(=O)O)c2)c2ccc(Cl)c(F)c2n1CC(=O)N1CC2(CCC2)c2c(F)cccc21 [Compound 1-33, 3-((6-Chloro-7-fluoro-1-(2-(4′-fluorospiro[cyclobutane-1,3′-indolin]-1′-yl)-2-oxoethyl)-2-methyl-1H-indol-3-yl)thio)benzoic acid]",≤ 500
8,"Cc1c(Sc2cccc(C(=O)O)c2)c2ccc(Cl)c(F)c2n1CC(=O)N1CC(C)(O)C1 [Compound 1-52, 3-((6-Chloro-7-fluoro-1-(2-(3-hydroxy-3-methylazetidin-1-yl)-2-oxoethyl)-2-methyl-1H-indol-3-yl)thio)benzoic acid]",≤ 500
9,"Cc1c(Sc2cccc(C(=O)O)c2)c2ccc(Cl)c(F)c2n1CC(=O)N1CC2(CC2)c2ccccc21 [Compound 1-31, 3-((6-Chloro-7-fluoro-2-methyl-1-(2-oxo-2-(spiro[cyclopropane-1,3′-indolin]-1′-yl)ethyl)-1H-indol-3-yl)thio)benzoic acid]",≤ 500
10,"Cc1c(Sc2cccc(C(=O)O)c2)c2ccc(Cl)c(F)c2n1CC(=O)N1CCC(Cc2cnn(C)c2)C1 (stereo not shown) [Compound 1-93, 3-((6-Chloro-7-fluoro-2-methyl-1-(2-(3-((1-methyl-1H-pyrazol-4-yl)methyl)pyrrolidin-1-yl)-2-oxoethyl)-1H-indol-3-yl)thio)benzoic acid]",≤ 500
11,"Cc1c(Sc2cccc(C(=O)O)c2)c2ccc(Cl)c(F)c2n1CC(=O)N1CCC(C)(C)CC1 [Compound 1-44, 3-((6-Chloro-1-(2-(4,4-dimethylpiperidin-1-yl)-2-oxoethyl)-7-fluoro-2-methyl-1H-indol-3-yl)thio)benzoic acid]",≤ 500
12,"Cc1c(Sc2cccc(C(=O)O)c2)c2ccc(Cl)c(F)c2n1CC(=O)N1CCc2cccnc21 [Compound 1-72, 3-((6-Chloro-1-(2-(2,3-dihydro-1H-pyrrolo[2,3-b]pyridin-1-yl)-2-oxoethyl)-7-fluoro-2-methyl-1H-indol-3-yl)thio)benzoic acid]",500 to 3000
13,"Cc1c(Sc2cccc(C(=O)O)c2)c2ccc(Cl)c(F)c2n1CC(=O)N1CCC2(CCN(Cc3ccccc3)CC2)C1 [Compound 1-67, 3-((1-(2-(8-Benzyl-2,8-diazaspiro[4.5]decan-2-yl)-2-oxoethyl)-6-chloro-7-fluoro-2-methyl-1H-indol-3-yl)thio)benzoic acid]",500 to 3000
14,"Cc1c(Sc2cccc(C(=O)O)c2)c2ccc(Cl)c(F)c2n1CC(=O)Nc1cnn(C)c1 [Compound 1-6, 3-((6-Chloro-7-fluoro-2-methyl-1-(2-((1-methyl-1H-pyrazol-4-yl)amino)-2-oxoethyl)-1H-indol-3-yl)thio)benzoic acid]",≤ 500
15,"Cc1c(Sc2cccc(C(=O)O)c2)c2ccc(Cl)c(F)c2n1CC(=O)N1CCCC1=O [Compound 1-59, 3-((6-Chloro-7-fluoro-2-methyl-1-(2-oxo-2-(2-oxopyrrolidin-1-yl)ethyl)-1H-indol-3-yl)thio)benzoic acid]",500 to 3000
16,"Cc1c(Sc2cccc(C(=O)O)c2)c2ccc(Cl)c(F)c2n1CC(=O)N1CCCCC1 [Compound 1-10, 3-((6-Chloro-7-fluoro-2-methyl-1-(2-oxo-2-(piperidin-1-yl)ethyl)-1H-indol-3-yl)thio)benzoic acid]",≤ 500
